# Test results from US20170119835A1, “METHOD OF MAKING AN ADJUNCT TO […] OF RIBOSOMAL FUNCTIONS IN TUMOR CELLS AND PREVENT BODY WEIGHT LOSS DURING CYCLOP[…] THERAPY” (priority 2009, published 2017).
# Tested on: S-180 cells
# Description: Healthy adult male mice of BALB/c strain (hereinafter, “animals”) weighing between 18 to 22 g were selected randomly. The animals were divided in to six groups. Each animal was identified by color marking. Each cage was identified by a label according to the group. The label contained the name of experiment, number of mice in that cage, dose (mg/kg) and date of initiation and completion of experiment. The groups received treatments for a period of 15 days. On Day 16, samples of blood were withdrawn, under anesthesia, from orbital sinus of the animals. The samples were collected in tubes containing Heparin as an anticoagulant.
# Group I was treated as vehicle control and received vehicle (Corn oil) orally, in equal volume as in treatment groups. Group II received only tumor cells (1×10^6 cells) intra-peritoneally. Group III received tumor cells (1×10^6 cells) and cyclophosphamide (150 mg/kg body weight) intra-peritoneally. Group IV and Group V received Tumor cells and BV-3115 at 100 mg/kg body weight and 250 mg/kg body weight respectively.
# A group of male mice approximately 7-8 weeks old and weighing between 18-22 gm were used for this study. Animal room temperature & relative humidity were maintained at 22-30 C. and 30-70% respectively. All mice were given free access to purified water (Purified with Aquaguard) & standard pelleted laboratory animal feed. After acclimation period of 7 days, each animal was weighed and then the animals were randomly selected according to body weights and allocated to the different treatment groups, so that mean body weights of groups were not statistically different before starting the experiment. Tumor implantation with S-180 cells 1×10^6 cells I.P. to all groups except group I (sham control no tumor, no drug).
# [1] = all treatment groups, Day 16 blood
smiles,measurement,setting,value
O=P1(N(CCCl)CCCl)NCCCO1 (stereo not drawn) [cyclophosphamide],mortality,"BALB/c mice, 15 days, cyclophosphamide 150 mg/kg i.p., BV-3115 100 and 250 mg/kg, combination with BV-3115 100 mg/kg",No mortality
same,body weight compared to Group I,"Group III, cyclophosphamide 150 mg/kg i.p., P<0.05","normal weight gain till Day 10, thereafter sudden decrease in weights"
same,body weight on day 15,"S-180 cells 1×106 I.P., vs sham control / tumor group",reduced the body weight alarmingly lower than sham control
same,platelets compared with Group I (vehicle control),all treatment groups,comparable to Group I
same,body weight compared to Group II (tumor cells only),"all treatment groups (III, IV, V and VI)",significant decrease in body weight
same,RBC count,[1],increased in varying degrees
same,hemoglobin content,[1],increased in varying degrees
same,white blood cells compared with Group II,"group III (cyclophosphamide) and VI (combination), P<0.05",statistically significant decrease in white blood cells
same,clinical signs,"other groups: cyclophosphamide 150 mg/kg, BV-3115 100 mg/kg, combination",No clinically abnormal signs
